The results in this text go back to PubChem BioAssay (NCI).

Values joined by “and” are separate entries in the source; they are usually repeats but may differ in a detail not shown here. Equal values may be shown once.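 Dose response: 5 concentrations. Exposure: 48 h. Format: 96-well plates. Endpoint: linear interpolation; highest concentration if not reached. GI50: concentration for 50% inhibition of growth. TGI denotes the concentration required for complete inhibition of growth.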 Bounds are passed on as bounds.

Some test systems named below: UACC-257 melanoma; HOP-62 NSCLC; SK-OV-3 ovarian; SR leukemia; A549 NSCLC; SNB-19 CNS; MOLT-4 leukemia; NCI-H23 lung; IGROV1 ovarian; HT29 colon.
Common to all, as to assay: DTP human tumour cell line panel, 48 h

As to `NC(N)=N/N=C/c1c(Cl)cccc1Cl`, the GI50 in the assay with UACC-257 melanoma is 12.3 µM; with HOP-62 NSCLC, 30.9 µM; in the assay with SK-OV-3 ovarian, 41.6 µM; in the assay on SR leukemia it was 22.2 µM; in the assay with A549 NSCLC, 27.4 µM; with SNB-19 CNS, 37.7 µM. For the same compound, the GI50 was 28.2 µM with MOLT-4 leukemia, 36.5 µM with NCI-H23 lung, 31.2 µM in the assay on IGROV1 ovarian and 17 µM with HT29 colon. Besides, the TGI in the assay on UACC-257 melanoma is 27.3 µM; in the assay on HOP-62 NSCLC, more than 100 µM; in the assay with SK-OV-3 ovarian, more than 100 µM; in the assay with SR leukemia it was 56.3 µM; in the assay on A549 NSCLC, more than 100 µM; with SNB-19 CNS, more than 100 µM. Moreover, the TGI in the assay on MOLT-4 leukemia is 74.5 µM; in the assay with NCI-H23 lung, more than 100 µM; with IGROV1 ovarian, more than 100 µM; in the assay on HT29 colon, 43.4 µM.
Take `CC12CCC(=O)C[C@H]1CCC(OC=O)C2Br` (some centres not stated): the TGI in the assay on UACC-257 melanoma, with HOP-62 NSCLC, in the assay with SK-OV-3 ovarian, in the assay with SR leukemia, in the assay on A549 NSCLC and in the assay with SNB-19 CNS was more than 100 µM each time. Besides, the concentration for total growth inhibition (TGI) in the assay with MOLT-4 leukemia, with NCI-H23 lung, in the assay with IGROV1 ovarian and in the assay on HT29 colon was more than 100 µM in each case.
`COC(=O)C(=Cc1cc(OC)c(OC)c(OC)c1-c1cc2c(cc1C1(C)OCCS1)OCO2)C(=O)OC` (configuration not stated): the total growth inhibition concentration (TGI) in the assay on UACC-257 melanoma, in the assay on HOP-62 NSCLC, in the assay with SK-OV-3 ovarian, in the assay on SR leukemia, in the assay with A549 NSCLC and in the assay with SNB-19 CNS was more than 100 µM each time. For the same compound, the total growth inhibition concentration (TGI) in the assay on MOLT-4 leukemia, in the assay with NCI-H23 lung, in the assay on IGROV1 ovarian and in the assay on HT29 colon was more than 100 µM in each case.
Regarding `CCn1c(O)c(/C=N/NC(=O)C(C)c2ccc(CC(C)C)cc2)sc1=S` (configuration not stated), the GI50 was 3.16 µM in the assay with UACC-257 melanoma; 0.549 µM in the assay with HOP-62 NSCLC; 0.666 µM with SK-OV-3 ovarian; 0.198 µM in the assay on SR leukemia; 0.472 µM in the assay on A549 NSCLC; 0.433 µM with SNB-19 CNS. For the same compound, the GI50 in the assay with MOLT-4 leukemia was 0.479 µM; with NCI-H23 lung it was 0.673 µM; with IGROV1 ovarian, 0.419 µM; with HT29 colon, 2.42 µM. For the same compound, the concentration for total growth inhibition (TGI) in the assay with UACC-257 melanoma is more than 74.9 µM; with HOP-62 NSCLC, more than 50.7 µM; in the assay with SK-OV-3 ovarian, more than 100 µM; in the assay with SR leukemia, more than 100 µM; with A549 NSCLC it was more than 54.4 µM; with SNB-19 CNS, more than 41.8 µM. In addition, the TGI with MOLT-4 leukemia is more than 48.2 µM; with NCI-H23 lung, more than 41.1 µM; in the assay with IGROV1 ovarian, more than 36.9 µM; in the assay with HT29 colon, more than 37.8 µM.
Consider `O=C1N=C2Sc3ccc4ccccc4c3N2C1=O`, for which the TGI with UACC-257 melanoma was 96.8 µM; in the assay with HOP-62 NSCLC, 39.8 µM; with SK-OV-3 ovarian, 31.6 µM; with SR leukemia, more than 100 µM; with A549 NSCLC, 41.2 µM; in the assay with SNB-19 CNS it was 45.8 µM. Further, the TGI in the assay on MOLT-4 leukemia is more than 100 µM; with NCI-H23 lung, 53.3 µM; with IGROV1 ovarian it was 57.1 µM; in the assay on HT29 colon it was 96.7 µM.
`COC(=O)/C(=C/c1ccc(OC)cc1)C(C(=O)O)=C1CCCC1`: the TGI in the assay with UACC-257 melanoma, in the assay on HOP-62 NSCLC, with SK-OV-3 ovarian, in the assay with SR leukemia, in the assay with A549 NSCLC and in the assay on SNB-19 CNS was more than 100 µM throughout. Also, the TGI in the assay on MOLT-4 leukemia, in the assay with NCI-H23 lung, in the assay with IGROV1 ovarian and in the assay on HT29 colon was more than 100 µM in each case.
As for `CCCC(=O)Nc1cn(COC)c(C(=O)N2C[C@@H]3C[C@]34C2=CC(=O)c2[nH]cc(C)c24)n1`, the GI50 with UACC-257 melanoma is 13.3 µM; with HOP-62 NSCLC, 3.91 µM; with SK-OV-3 ovarian, 13.7 µM; in the assay with SNB-19 CNS it was 10.7 µM; with MOLT-4 leukemia, 1.19 µM; in the assay with IGROV1 ovarian, 1.27 µM. In addition, the GI50 in the assay with HT29 colon was 11.2 µM. Further, the TGI was 23.5 µM and 27.7 µM with UACC-257 melanoma; 50 µM and 15.2 µM in the assay on HOP-62 NSCLC; 28.2 µM and 29.4 µM in the assay with SK-OV-3 ovarian; 0.488 µM with SR leukemia; 50 µM and 30 µM with A549 NSCLC; 50 µM and 30.9 µM with SNB-19 CNS. Also, the total growth inhibition concentration (TGI) is 3.8 µM and 21.2 µM with MOLT-4 leukemia; 14.7 µM and 6.4 µM in the assay on NCI-H23 lung; 29.5 µM and 10.8 µM in the assay on IGROV1 ovarian; 21.1 µM and 37.7 µM with HT29 colon.
Turning to `CCN1CCN(c2cc(C)c3cc(NC(=O)c4ccc(OC)c(OC)c4)ccc3n2)CC1`, the GI50 in the assay on UACC-257 melanoma was more than 40.4 µM; in the assay with HOP-62 NSCLC it was more than 37 µM; in the assay on SK-OV-3 ovarian, more than 30.1 µM; with SR leukemia, 1.44 µM; in the assay on A549 NSCLC, 11.1 µM; in the assay on SNB-19 CNS, more than 61 µM. Further, the GI50 in the assay on MOLT-4 leukemia was 6.21 µM; in the assay with NCI-H23 lung, 50.5 µM; with IGROV1 ovarian it was more than 66.3 µM; in the assay on HT29 colon, 1.31 µM. Also, the concentration for total growth inhibition (TGI) in the assay on UACC-257 melanoma was more than 58.9 µM; in the assay with HOP-62 NSCLC, more than 57.7 µM; with SK-OV-3 ovarian, more than 73.3 µM; in the assay on SR leukemia, more than 30.5 µM; in the assay with A549 NSCLC, more than 100 µM; in the assay on SNB-19 CNS, more than 100 µM. For the same compound, the total growth inhibition concentration (TGI) in the assay with MOLT-4 leukemia was 88.9 µM; in the assay with NCI-H23 lung, more than 100 µM; with IGROV1 ovarian, more than 100 µM; in the assay on HT29 colon, more than 100 µM.
`CCOc1ccc(/C=C2\N=C(c3ccc([N+](=O)[O-])cc3)OC2=O)cc1`: the TGI with UACC-257 melanoma, in the assay on HOP-62 NSCLC, with SK-OV-3 ovarian, with SR leukemia, in the assay with A549 NSCLC and in the assay with SNB-19 CNS was more than 100 µM in each case. In addition, the TGI with MOLT-4 leukemia, in the assay on NCI-H23 lung, in the assay with IGROV1 ovarian and with HT29 colon was more than 100 µM each time.
With `COc1ccc2nc3ccccc3c(NCc3ccc(F)cc3)c2c1`, the GI50 in the assay on UACC-257 melanoma is 1.8 µM; in the assay on HOP-62 NSCLC it was 2.34 µM; in the assay on SK-OV-3 ovarian, 2.79 µM; in the assay on SR leukemia it was 1.79 µM; with A549 NSCLC, 1.99 µM; with SNB-19 CNS, 2.04 µM. Besides, the GI50 with MOLT-4 leukemia is 1.66 µM; in the assay on NCI-H23 lung, 1.89 µM; with IGROV1 ovarian, 1.8 µM; in the assay with HT29 colon it was 1.48 µM. The concentration for total growth inhibition (TGI) turned out to be 6.68 µM with UACC-257 melanoma; 10.9 µM in the assay on HOP-62 NSCLC; 10.4 µM with SK-OV-3 ovarian; 5.75 µM in the assay with SR leukemia; 9.89 µM in the assay with A549 NSCLC; 7.62 µM in the assay on SNB-19 CNS. The TGI was 10.4 µM in the assay with MOLT-4 leukemia, 8.46 µM in the assay on NCI-H23 lung, 6.65 µM with IGROV1 ovarian and 5.19 µM in the assay with HT29 colon.

What is called GI50 is the concentration that inhibits growth by half. A word on the TGI: it is the concentration giving total growth inhibition. Higher therefore signals less potent growth arrest.
